For this experiment, the target named is T1, STAT6 (Homo sapiens, UniProt P42226).
T1 construct: endogenous in cells; host or cells: MOLM-16, KU-812, SKNO1, MB231, L1236
T1 sequence (P42226 1-847): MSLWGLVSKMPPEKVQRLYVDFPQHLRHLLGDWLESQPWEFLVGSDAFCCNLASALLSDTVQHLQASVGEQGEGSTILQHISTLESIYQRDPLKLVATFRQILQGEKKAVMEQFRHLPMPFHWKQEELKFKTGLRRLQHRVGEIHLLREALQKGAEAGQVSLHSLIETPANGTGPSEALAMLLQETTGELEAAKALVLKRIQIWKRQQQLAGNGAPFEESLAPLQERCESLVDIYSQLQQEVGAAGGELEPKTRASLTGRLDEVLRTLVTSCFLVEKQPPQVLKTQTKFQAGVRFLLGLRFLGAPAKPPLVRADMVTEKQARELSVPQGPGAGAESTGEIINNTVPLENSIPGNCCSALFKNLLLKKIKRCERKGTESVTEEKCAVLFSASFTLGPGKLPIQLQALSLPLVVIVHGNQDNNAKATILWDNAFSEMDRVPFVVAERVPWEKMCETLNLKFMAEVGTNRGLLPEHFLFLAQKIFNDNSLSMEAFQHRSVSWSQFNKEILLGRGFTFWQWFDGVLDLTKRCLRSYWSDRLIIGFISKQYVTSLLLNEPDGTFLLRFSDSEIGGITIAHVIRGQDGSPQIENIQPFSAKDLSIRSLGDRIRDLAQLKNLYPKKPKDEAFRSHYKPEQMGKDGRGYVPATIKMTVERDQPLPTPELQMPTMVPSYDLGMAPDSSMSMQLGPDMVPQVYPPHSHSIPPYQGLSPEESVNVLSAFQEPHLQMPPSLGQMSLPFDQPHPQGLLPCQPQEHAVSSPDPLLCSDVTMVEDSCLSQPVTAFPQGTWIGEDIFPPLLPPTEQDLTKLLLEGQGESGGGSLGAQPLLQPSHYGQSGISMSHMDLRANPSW
Description: Immunoblotting (Western blot) analysis of STAT6 degradation efficiency of degraders in treated cells. It is filed as cell-based. Summed up:
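Cells (~1 million per point) treated with compounds at indicated concentrations and times, lysed in RIPA with protease/phosphatase inhibitors; 20-40 μg protein run on SDS-PAGE and blotted to PVDF. STAT6 or STAT5 rabbit mAbs with GAPDH loading control, IRDye secondaries; near-infrared fluorescence scan, band intensity quantified.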

Where [1] appears, read: L1236 cells, read-out: DC50 S6 L1236.
Where [2] appears, read: MOLM-16 cells, class symbols, read-out: DC50 S6 MOLM-16.

Like-named read-outs stand apart in the source and are kept apart here. *1 amine or outer side, *2 acyl side, *3 side chain or, on linkers, in order; H or OH if unused. Where a SMILES comes first, the peptide text is derived from it. [ ]: non-standard residue; d: D form. The star is where a group is joined. Benzothienyl2CO(5-CF2PO3H2) = O=C(c1cc2cc(C(F)(F)P(=O)(O)O)ccc2s1)*; βAla(N-(4-Br-phenyl)) = O=C(CCN(c1ccc(Br)cc1)[*:1])[*:2]; NHBn(4-(4-Me-thiazol-5-yl)) = Cc1ncsc1-c1ccc(CN*)cc1; Hyp = O=C(O)[C@@H]1C[C@@H](O)CN1; Tle = CC(C)(C)[C@H](N)C(=O)O; Aoc = NCCCCCCCC(=O)O

`Cc1ncsc1-c1ccc([C@H](C)NC(=O)[C@@H]2C[C@@H](O)CN2C(=O)[C@@H](NC(=O)CCCCCNC(=O)CC(=O)N2CCN(C(=O)[C@@H](NC(=O)c3cc4cc(C(F)(F)P(=O)(O)O)ccc4s3)C(C)(C)C)[C@H](C(=O)N3CCO[C@H](c4ccccc4)C3)C2)C(C)(C)C)cc1` [Compound 447, (difluoro(2-(((S)-1-((S)-4-(3-((6-(((S)-1-((2S,4R)-4-hydroxy-2-(((S)-1-(4-(4-methylthiazol-5-yl)phenyl)ethyl)carbamoyl)pyrrolidin-1-yl)-3,3-dimethyl-1-oxobutan-2-yl)amino)-6-oxohexyl)amino)-3-oxopropanoyl)-2-((R)-2-phenylmorpholine-4-carbonyl)piperazin-1-yl)-3,3-dimethyl-1-oxobutan-2-yl)carbamoyl)benzo[b]thiophen-5-yl)methyl)phosphonic acid]: the DC50 (in general, the concentration at which degradation of the target reaches its halfway point) is greater than 10 µM under setting [1] and greater than 10 µM under setting [2].

For the compound `Cc1ncsc1-c1ccc(CNC(=O)[C@@H]2C[C@@H](O)CN2C(=O)[C@@H](NC(=O)CCCCCCCNC(=O)CCN(C(=O)[C@@H]2CCCN2C(=O)[C@@H](NC(=O)c2cc3cc(C(F)(F)P(=O)(O)O)ccc3s2)C(C)(C)C)c2ccc(Br)cc2)C(C)(C)C)cc1` [Compound 398] ({Benzothienyl2CO(5-CF2PO3H2)}-[Tle]P[βAla(N-(4-Br-phenyl))][Aoc][Tle][Hyp]-{NHBn(4-(4-Me-thiazol-5-yl))}), where the note is “read-out: DC50 S6 MB231, MB231 cells”, the DC50 is greater than 10 µM. For `CC(C)(C)[C@H](NC(=O)c1cc2cc(C(F)(F)P(=O)(O)O)ccc2s1)C(=O)N1C[C@@H](OCCCCC#Cc2cccc3c2CN(C2CCC(=O)NC2=O)C3=O)C[C@H]1C(=O)N1CCO[C@H](c2ccccc2)C1` (stereo partly drawn) [Compound 594, ((2-(((2S)-1-((2S,4S)-4-((6-(2-(2,6-dioxopiperidin-3-yl)-1-oxoisoindolin-4-yl)hex-5-yn-1-yl)oxy)-2-((R)-2-phenylmorpholine-4-carbonyl)pyrrolidin-1-yl)-3,3-dimethyl-1-oxobutan-2-yl)carbamoyl)benzo[b]thiophen-5-yl)difluoromethyl)phosphonic acid], the DC50 under setting [2] is less than 0.1 µM. Same read-out and setting: then `Cc1ncsc1-c1ccc([C@H](C)NC(=O)[C@@H]2C[C@@H](O)CN2C(=O)[C@@H](NC(=O)CCCCCCCCCNC(=O)COc2ccc3c(c2)CN(C(=O)[C@@H](NC(=O)c2cc4cc(C(F)(F)P(=O)(O)O)ccc4s2)C(C)(C)C)[C@H](C(=O)N2CCC[C@H](c4ccccc4)C2)C3)C(C)(C)C)cc1` [Compound 478, (difluoro(2-(((S)-1-((S)-7-(2-((10-(((S)-1-((2S,4R)-4-hydroxy-2-(((S)-1-(4-(4-methylthiazol-5-yl)phenyl)ethyl)carbamoyl)pyrrolidin-1-yl)-3,3-dimethyl-1-oxobutan-2-yl)amino)-10-oxodecyl)amino)-2-oxoethoxy)-3-((R)-3-phenylpiperidine-1-carbonyl)-3,4-dihydroisoquinolin-2(1H)-yl)-3,3-dimethyl-1-oxobutan-2-yl)carbamoyl)benzo[b]thiophen-5-yl)methyl)phosphonic acid], with greater than 10 µM. Consider `Cc1ncsc1-c1ccc([C@H](C)NC(=O)[C@@H]2C[C@@H](O)CN2C(=O)[C@@H](NC(=O)CCCCNC(=O)CO[C@H]2C[C@@H](C(=O)N3CCO[C@H](c4ccccc4)C3)N(C(=O)[C@@H](NC(=O)c3cc4cc(C(F)(F)P(=O)(O)O)ccc4s3)C(C)(C)C)C2)C(C)(C)C)cc1` [Compound 428, (difluoro(2-(((S)-1-((2S,4S)-4-(2-((5-(((S)-1-((2S,4R)-4-hydroxy-2-(((S)-1-(4-(4-methylthiazol-5-yl)phenyl)ethyl)carbamoyl)pyrrolidin-1-yl)-3,3-dimethyl-1-oxobutan-2-yl)amino)-5-oxopentyl)amino)-2-oxoethoxy)-2-((R)-2-phenylmorpholine-4-carbonyl)pyrrolidin-1-yl)-3,3-dimethyl-1-oxobutan-2-yl)carbamoyl)benzo[b]thiophen-5-yl)methyl)phosphonic acid], for which the DC50 runs as follows: under setting [1], greater than 10 µM; under setting [2], greater than 10 µM. With `Cc1ncsc1-c1ccc([C@H](C)NC(=O)[C@@H]2C[C@@H](O)CN2C(=O)[C@@H](NC(=O)CNC(=O)COc2ccc3c(c2)CN(C(=O)[C@@H](NC(=O)c2cc4cc(C(F)(F)P(=O)(O)O)ccc4s2)C(C)(C)C)[C@H](C(=O)N2CCC[C@H](c4ccccc4)C2)C3)C(C)(C)C)cc1` [Compound 470, (difluoro(2-(((S)-1-((S)-7-(2-((2-(((S)-1-((2S,4R)-4-hydroxy-2-(((S)-1-(4-(4-methylthiazol-5-yl)phenyl)ethyl)carbamoyl)pyrrolidin-1-yl)-3,3-dimethyl-1-oxobutan-2-yl)amino)-2-oxoethyl)amino)-2-oxoethoxy)-3-((R)-3-phenylpiperidine-1-carbonyl)-3,4-dihydroisoquinolin-2(1H)-yl)-3,3-dimethyl-1-oxobutan-2-yl)carbamoyl)benzo[b]thiophen-5-yl)methyl)phosphonic acid], under setting [2], the DC50 is greater than 10 µM. With `CC(C)(C)[C@H](NC(=O)c1cc2cc(C(F)(F)P(=O)(O)O)ccc2s1)C(=O)N1C[C@@H](OCCCCCC#Cc2cccc3c2CN(C2CCC(=O)NC2=O)C3=O)C[C@H]1C(=O)N1CCC[C@H](c2ccccc2)C1` (stereo partly drawn) [Compound 601, ((2-(((2S)-1-((2S,4S)-4-((7-(2-(2,6-dioxopiperidin-3-yl)-1-oxoisoindolin-4-yl)hept-6-yn-1-yl)oxy)-2-((R)-3-phenylpiperidine-1-carbonyl)pyrrolidin-1-yl)-3,3-dimethyl-1-oxobutan-2-yl)carbamoyl)benzo[b]thiophen-5-yl)difluoromethyl)phosphonic acid], under “MOLM-16 cells, numeric bound, read-out: DC50 S6 MOLM-16”, the DC50 is greater than 0.3 µM. For `CC(C)(C)[C@H](NC(=O)c1cc2cc(C(F)(F)P(=O)(O)O)ccc2s1)C(=O)N1Cc2cc(OCC(=O)NCCCCCCCCC#Cc3cccc4c3C(=O)N(C3CCC(=O)NC3=O)C4=O)ccc2C[C@H]1C(=O)N1CCC[C@H](c2ccccc2)C1` (stereo partly drawn) [Compound 559, ((2-(((2S)-1-((3S)-7-(2-((10-(2-(2,6-dioxopiperidin-3-yl)-1,3-dioxoisoindolin-4-yl)dec-9-yn-1-yl)amino)-2-oxoethoxy)-3-((R)-3-phenylpiperidine-1-carbonyl)-3,4-dihydroisoquinolin-2(1H)-yl)-3,3-dimethyl-1-oxobutan-2-yl)carbamoyl)benzo[b]thiophen-5-yl)difluoromethyl)phosphonic acid], the DC50 under setting [2] is greater than 10 µM. The same measure, in the same setting: in the case of `CC(C)(C)[C@H](NC(=O)c1cc2cc(C(F)(F)P(=O)(O)O)ccc2s1)C(=O)N1Cc2cc(OCC(=O)NCCCC#Cc3cccc4c3C(=O)N(C3CCC(=O)NC3=O)C4=O)ccc2C[C@H]1C(=O)N1CCC[C@H](c2ccccc2)C1` (stereo partly drawn) [Compound 553, ((2-(((2S)-1-((3S)-7-(2-((5-(2-(2,6-dioxopiperidin-3-yl)-1,3-dioxoisoindolin-4-yl)pent-4-yn-1-yl)amino)-2-oxoethoxy)-3-((R)-3-phenylpiperidine-1-carbonyl)-3,4-dihydroisoquinolin-2(1H)-yl)-3,3-dimethyl-1-oxobutan-2-yl)carbamoyl)benzo[b]thiophen-5-yl)difluoromethyl)phosphonic acid] it was greater than 10 µM. Regarding `Cc1ncsc1-c1ccc([C@H](C)NC(=O)[C@@H]2C[C@@H](O)CN2C(=O)[C@@H](NC(=O)CCCCCCCNC(=O)CO[C@H]2C[C@@H](C(=O)N3CCC[C@H](c4ccccc4)C3)N(C(=O)[C@@H](NC(=O)c3cc4cc(C(F)(F)P(=O)(O)O)ccc4s3)C(C)(C)C)C2)C(C)(C)C)cc1` [Compound 440, (difluoro(2-(((S)-1-((2S,4S)-4-(2-((8-(((S)-1-((2S,4R)-4-hydroxy-2-(((S)-1-(4-(4-methylthiazol-5-yl)phenyl)ethyl)carbamoyl)pyrrolidin-1-yl)-3,3-dimethyl-1-oxobutan-2-yl)amino)-8-oxooctyl)amino)-2-oxoethoxy)-2-((R)-3-phenylpiperidine-1-carbonyl)pyrrolidin-1-yl)-3,3-dimethyl-1-oxobutan-2-yl)carbamoyl)benzo[b]thiophen-5-yl)methyl)phosphonic acid], the 50% degradation concentration (DC50) was greater than 10 µM under setting [1] and greater than 10 µM under setting [2].

These data come from US20230295197A1, “STAT5 and STAT6 Degraders and Uses Thereof” (REGENTS OF THE UNIVERSITY OF MICHICAN, priority 2022, published 2023).
